The Kinase Knowledgebase extract (Sharma et al. 2016)

Biological target: EGFR (UniProt P00533)
Sequence (P00533 whole entry, looked up): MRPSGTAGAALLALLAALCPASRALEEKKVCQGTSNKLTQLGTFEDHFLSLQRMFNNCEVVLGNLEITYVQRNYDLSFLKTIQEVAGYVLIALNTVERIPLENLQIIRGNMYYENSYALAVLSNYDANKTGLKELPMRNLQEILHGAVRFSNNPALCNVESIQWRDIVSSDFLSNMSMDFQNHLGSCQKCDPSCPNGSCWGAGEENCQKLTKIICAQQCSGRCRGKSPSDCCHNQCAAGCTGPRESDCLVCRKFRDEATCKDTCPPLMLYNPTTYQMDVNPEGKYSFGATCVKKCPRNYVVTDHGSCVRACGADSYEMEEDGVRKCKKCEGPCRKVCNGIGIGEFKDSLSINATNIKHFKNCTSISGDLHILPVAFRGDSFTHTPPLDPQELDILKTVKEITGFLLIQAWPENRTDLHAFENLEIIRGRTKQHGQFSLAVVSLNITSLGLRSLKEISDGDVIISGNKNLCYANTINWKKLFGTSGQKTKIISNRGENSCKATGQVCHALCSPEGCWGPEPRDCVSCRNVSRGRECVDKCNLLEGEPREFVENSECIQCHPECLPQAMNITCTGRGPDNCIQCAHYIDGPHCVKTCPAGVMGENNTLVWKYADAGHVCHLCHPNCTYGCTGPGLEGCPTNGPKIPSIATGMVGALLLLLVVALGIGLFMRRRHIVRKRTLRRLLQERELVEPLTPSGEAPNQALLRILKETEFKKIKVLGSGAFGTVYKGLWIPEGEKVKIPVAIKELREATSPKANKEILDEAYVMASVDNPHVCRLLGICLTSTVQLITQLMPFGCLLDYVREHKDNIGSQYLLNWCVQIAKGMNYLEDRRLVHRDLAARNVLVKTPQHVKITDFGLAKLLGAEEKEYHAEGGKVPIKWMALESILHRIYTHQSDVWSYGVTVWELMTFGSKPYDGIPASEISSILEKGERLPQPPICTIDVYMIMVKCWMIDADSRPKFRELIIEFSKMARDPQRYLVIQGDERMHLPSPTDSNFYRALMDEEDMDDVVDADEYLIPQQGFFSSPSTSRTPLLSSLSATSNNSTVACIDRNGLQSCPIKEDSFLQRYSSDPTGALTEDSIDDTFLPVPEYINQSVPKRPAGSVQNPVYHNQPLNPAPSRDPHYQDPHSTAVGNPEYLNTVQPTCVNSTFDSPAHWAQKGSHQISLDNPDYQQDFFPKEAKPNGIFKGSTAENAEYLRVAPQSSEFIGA

| SMILES | IC50 [nM] |
| --- | --- |
| CCN1CCC(Nc2ccc3c(c2)/C(=C(\c2cc(F)cc(F)c2)c2nc(C)c[nH]2)C(=O)N3)CC1 | 50 to 500 |
| COCCN1CCC(Nc2ccc3c(c2)/C(=C(\c2ccc(C(F)(F)F)c(F)c2)c2ncc[nH]2)C(=O)N3)CC1 | > 5000 |
| CCN1CCC(Nc2ccc3c(c2)/C(=C(\c2ccccc2)c2nc(CCN4C(=O)c5ccccc5C4=O)c[nH]2)C(=O)N3)CC1 | 500 to 5000 |
| COCCN1CCC(Nc2ccc3c(c2)/C(=C(\c2ccc(F)cc2)c2ncc[nH]2)C(=O)N3)CC1 | > 5000 |
| CCN1CCC(Nc2ccc3c(c2)/C(=C(\c2cccc([N+](=O)[O-])c2)c2nc4ccccc4[nH]2)C(=O)N3)CC1 | 500 to 5000 |
| CCN1CCC(Nc2ccc3c(c2)/C(=C(\c2cccc(OC)c2)c2nc4ccccc4[nH]2)C(=O)N3)CC1 | 50 to 500 |
| CCN(CC)CCN1CCC(Nc2ccc3c(c2)/C(=C(\c2cccc(F)c2)c2ncc[nH]2)C(=O)N3)CC1 | > 5000 |
| CCN1CCC(Nc2ccc3c(c2)/C(=C(\c2ccc(C)cc2)c2nc(C)c[nH]2)C(=O)N3)CC1 | 50 to 500 |
| CCN1CCC(Nc2ccc3c(c2)/C(=C(/c2cc(F)cc(F)c2)c2nc4cc(F)ccc4[nH]2)C(=O)N3)CC1 | > 5000 |
| CCN1CCC(Oc2ccc3c(c2)/C(=C(\c2cccc(Cl)c2)c2nc4ccccc4[nH]2)C(=O)N3)CC1 | 500 to 5000 |
| CCN1CCC(Oc2ccc3c(c2)/C(=C(\c2cccc(OC)c2)c2nc4ccccc4[nH]2)C(=O)N3)CC1 | 500 to 5000 |
| CCN1CCC(Oc2ccc3c(c2)/C(=C(\c2ccccc2)c2nc4cc(OC)ccc4[nH]2)C(=O)N3)CC1 | 500 to 5000 |
| CCN1CCC(Oc2ccc3c(c2)/C(=C(\c2cc(F)cc(F)c2)c2nc4ccccc4[nH]2)C(=O)N3)CC1 | 500 to 5000 |
| CCN1CCC(Nc2ccc3c(c2)/C(=C(\c2ccc(C(F)(F)F)nc2)c2ncc[nH]2)C(=O)N3)CC1 | > 5000 |
| O=C1Nc2ccc(OC3CCN(Cc4ccccc4)CC3)cc2/C1=C(\c1ccccc1)c1nc2ccccc2[nH]1 | 500 to 5000 |
| CCN1CCC(Nc2ccc3c(c2)/C(=C(\c2ccc(C)c(F)c2)c2nc4ccccc4[nH]2)C(=O)N3)CC1 | < 50 |
| COCCN1CCC(Oc2ccc3c(c2)/C(=C(\c2cc(F)cc(F)c2)c2nc4ccccc4[nH]2)C(=O)N3)CC1 | 500 to 5000 |
| COCCN1CCC(Nc2ccc3c(c2)/C(=C(\c2cccc(OC)c2)c2nc4ccccc4[nH]2)C(=O)N3)CC1 | 500 to 5000 |
| CCN1CCC(Nc2ccc3c(c2)/C(=C(\c2cccc(C(F)(F)F)c2)c2nc(C)c[nH]2)C(=O)N3)CC1 | 500 to 5000 |
| CS(=O)(=O)N1CCC(Nc2ccc3c(c2)/C(=C(\c2ccccc2)c2nc4ccccc4[nH]2)C(=O)N3)CC1 | 500 to 5000 |
| Cc1ccc(/C(=C2/C(=O)Nc3ccc(NC4CCN(C)CC4)cc32)c2ncc[nH]2)cc1 | 50 to 500 |
